# Laboratory results taken from publication PMC7676653, “Molecular analysis of cyclic α-maltosyl-(1→6)-maltose binding protein in the bacterial metabolic pathway” (PLoS ONE, 2020).
# Biological target: T1, CMMBP (CmmC) (Arthrobacter globiformis, UniProt D2YYD8)
# T1 construct: N-terminal 6xHis tag, pET-28b (NdeI/BamHI), E. coli Rosetta2 (DE3); structure domains span residues 31-421; tag cleavage not mentioned
# T1 sequence (D2YYD8 26-421): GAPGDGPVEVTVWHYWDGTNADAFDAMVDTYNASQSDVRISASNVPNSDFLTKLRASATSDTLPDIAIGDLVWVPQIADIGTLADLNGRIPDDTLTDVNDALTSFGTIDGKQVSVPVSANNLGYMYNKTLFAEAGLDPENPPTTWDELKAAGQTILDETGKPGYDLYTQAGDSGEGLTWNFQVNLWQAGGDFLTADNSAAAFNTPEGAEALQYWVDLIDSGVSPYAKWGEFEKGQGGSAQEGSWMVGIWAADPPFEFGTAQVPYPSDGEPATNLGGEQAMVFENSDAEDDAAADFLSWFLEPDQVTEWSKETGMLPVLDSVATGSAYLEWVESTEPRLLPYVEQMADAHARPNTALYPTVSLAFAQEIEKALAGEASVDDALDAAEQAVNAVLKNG
# Experiment: isothermal titration calorimetry
# Format: binding
SMILES,"Ka (×10^8 M^-1) (20 mM Tris-HCl pH 8.0, 25 °C, one-site model, printed in parentheses as not reliable (weak affinity, low c value))",Kd [nM]
"OC[C@H]1O[C@H](O[C@H]2[C@H](O)[C@@H](O)[C@@H](OC[C@H]3O[C@H](O[C@H]4[C@H](O)[C@@H](O)C(O)O[C@@H]4CO)[C@H](O)[C@@H](O)[C@@H]3O)O[C@@H]2CO)[C@H](O)[C@@H](O)[C@@H]1O (stereo partly drawn) [MM, α-maltosyl-(1→6)-maltose]",(0.0022 ± 0.0014) × 10^8,–
"OC[C@H]1O[C@@H]2OC[C@H]3O[C@H](O[C@H]4[C@H](O)[C@@H](O)[C@@H](OC[C@H]5O[C@H](O[C@H]1[C@H](O)[C@H]2O)[C@H](O)[C@@H](O)[C@@H]5O)O[C@@H]4CO)[C@H](O)[C@@H](O)[C@@H]3O [CMM, cyclo-{→6}-α-D-Glcp-(1→4)-α-D-Glcp-(1→6)-α-D-Glcp-(1→4)-α-D-Glcp-(1→)]",–,9.6
